System: stable CF patients
Test: Phase 2 study: CFQ-R questionnaire
Type: in vivo, human
Details: for CFQ-R respiratory, mean change from baseline: Baseline to Day 28
Method: The following dosage regimens (as nebulizer loaded doses) were evaluated: 120 mg QD (daily); 240 mg QD (daily); and 240 mg BID (twice daily).
Patients were assessed on Day 1, 7, 14, and 28, and then up to 28 days after completion of study drug, namely, Days 42 and 56. The end of the study was defined as the last visit of the last patient.
Efficacy was evaluated by microbiologic assessment of sputum samples, time to need for anti-pseudomonal antimicrobials, the Cystic Fibrosis Questionaire-Revised (CFQ-R), and pulmonary function tests. […] Pair-wise comparisons between all the treatment arms were conducted as secondary analyses.
Patients completed the CFQ-R questionnaire with domains that included: respiratory, body image, digestion, eating, emotion, health perception, physical, role/school, social, treatment burden, vitality, and weight.

[1] = EE population, Combined 240 mg QD and BID
[2] = MITT population, 240 mg BID vs Placebo, baseline to visit 4
[3] = MITT population, 240 mg BID, baseline to visit 4
[4] = MITT population, Combined 240 mg QD and BID

SMILES: C[C@H]1COc2c(N3CCN(C)CC3)c(F)cc3c(=O)c(C(=O)O)cn1c23 [Levofloxacin, levofloxacin]
- Respiratory domain of CFQ-R, Change from Baseline to Day 14, Mean (EE population, 120 mg QD): 4.3
- Respiratory domain of CFQ-R, Change from Baseline to Day 14, Median (EE population, 120 mg QD): 5.5
- Respiratory domain of CFQ-R, Change from Baseline to Day 28, Mean (EE population, 120 mg QD): 1.6
- Respiratory domain of CFQ-R, Change from Baseline to Day 28, Median (EE population, 120 mg QD): 0.0
- Respiratory domain of CFQ-R, Day 1, Mean (EE population, 120 mg QD): 63.5
- Respiratory domain of CFQ-R, Day 1, Median (EE population, 120 mg QD): 66.7
- Respiratory domain of CFQ-R, Day 14, Mean (EE population, 120 mg QD): 67.8
- Respiratory domain of CFQ-R, Day 14, Median (EE population, 120 mg QD): 66.7
- Respiratory domain of CFQ-R, Day 28, Mean (EE population, 120 mg QD): 65.1
- Respiratory domain of CFQ-R, Day 28, Median (EE population, 120 mg QD): 66.7
- Respiratory domain of CFQ-R, Change from Baseline to Day 14, Mean (EE population, 240 mg BID): 8.5
- Respiratory domain of CFQ-R, Change from Baseline to Day 14, Median (EE population, 240 mg BID): 5.6
- Respiratory domain of CFQ-R, Change from Baseline to Day 28, Mean (EE population, 240 mg BID): 5.2
- Respiratory domain of CFQ-R, Change from Baseline to Day 28, Median (EE population, 240 mg BID): 5.5
- Respiratory domain of CFQ-R, Day 1, Mean (EE population, 240 mg BID): 60.3
- Respiratory domain of CFQ-R, Day 1, Median (EE population, 240 mg BID): 61.1
- Respiratory domain of CFQ-R, Day 14, Mean (EE population, 240 mg BID): 68.8
- Respiratory domain of CFQ-R, Day 14, Median (EE population, 240 mg BID): 72.2
- Respiratory domain of CFQ-R, Day 28, Mean (EE population, 240 mg BID): 66.0
- Respiratory domain of CFQ-R, Day 28, Median (EE population, 240 mg BID): 72.2
- Respiratory domain of CFQ-R, Change from Baseline to Day 14, Mean (EE population, 240 mg QD): 2.1
- Respiratory domain of CFQ-R, Change from Baseline to Day 14, Median (EE population, 240 mg QD): 0.0
- Respiratory domain of CFQ-R, Change from Baseline to Day 28, Mean (EE population, 240 mg QD): 1.0
- Respiratory domain of CFQ-R, Change from Baseline to Day 28, Median (EE population, 240 mg QD): 0.0
- Respiratory domain of CFQ-R, Day 1, Mean (EE population, 240 mg QD): 60.8
- Respiratory domain of CFQ-R, Day 1, Median (EE population, 240 mg QD): 61.1
- Respiratory domain of CFQ-R, Day 14, Mean (EE population, 240 mg QD): 63.2
- Respiratory domain of CFQ-R, Day 14, Median (EE population, 240 mg QD): 66.7
- Respiratory domain of CFQ-R, Day 28, Mean (EE population, 240 mg QD): 61.7
- Respiratory domain of CFQ-R, Day 28, Median (EE population, 240 mg QD): 66.7
- Respiratory domain of CFQ-R, Change from Baseline to Day 14, Mean [1]: 5.3
- Respiratory domain of CFQ-R, Change from Baseline to Day 14, Median [1]: 5.6
- Respiratory domain of CFQ-R, Change from Baseline to Day 28, Mean [1]: 3.0
- Respiratory domain of CFQ-R, Change from Baseline to Day 28, Median [1]: 0.0
- Respiratory domain of CFQ-R, Day 1, Mean [1]: 60.5
- Respiratory domain of CFQ-R, Day 1, Median [1]: 61.1
- Respiratory domain of CFQ-R, Day 14, Mean [1]: 66.0
- Respiratory domain of CFQ-R, Day 14, Median [1]: 66.7
- Respiratory domain of CFQ-R, Day 28, Mean [1]: 63.8
- Respiratory domain of CFQ-R, Day 28, Median [1]: 66.7
- CFQ-R respiratory, mean change from baseline (EE, 120 mg QD): 1.0 units
- Respiratory domain of CFQ-R, Change from Baseline to Day 14, Mean (MITT population, 120 mg QD): 4.5
- Respiratory domain of CFQ-R, Change from Baseline to Day 14, Median (MITT population, 120 mg QD): 5.5
- Respiratory domain of CFQ-R, Change from Baseline to Day 28, Mean (MITT population, 120 mg QD): 2.0
- Respiratory domain of CFQ-R, Change from Baseline to Day 28, Median (MITT population, 120 mg QD): 0.0
- Respiratory domain of CFQ-R, Day 1, Mean (MITT population, 120 mg QD): 62.3
- Respiratory domain of CFQ-R, Day 1, Median (MITT population, 120 mg QD): 61.1
- Respiratory domain of CFQ-R, Day 14, Mean (MITT population, 120 mg QD): 67.1
- Respiratory domain of CFQ-R, Day 14, Median (MITT population, 120 mg QD): 66.7
- Respiratory domain of CFQ-R, Day 28, Mean (MITT population, 120 mg QD): 64.6
- Respiratory domain of CFQ-R, Day 28, Median (MITT population, 120 mg QD): 66.7
- Respiratory domain of CFQ-R, Change from Baseline to Day 14, Mean (MITT population, 240 mg BID): 7.5
- Respiratory domain of CFQ-R, Change from Baseline to Day 14, Median (MITT population, 240 mg BID): 5.6
- Respiratory domain of CFQ-R, Change from Baseline to Day 28, Mean (MITT population, 240 mg BID): 3.0
- Respiratory domain of CFQ-R, Change from Baseline to Day 28, Median (MITT population, 240 mg BID): 0.0
- Respiratory domain of CFQ-R, Day 1, Mean (MITT population, 240 mg BID): 60.5
- Respiratory domain of CFQ-R, Day 1, Median (MITT population, 240 mg BID): 61.1
- Respiratory domain of CFQ-R, Day 14, Mean (MITT population, 240 mg BID): 68.4
- Respiratory domain of CFQ-R, Day 14, Median (MITT population, 240 mg BID): 72.2
- Respiratory domain of CFQ-R, Day 28, Mean (MITT population, 240 mg BID): 64.4
- Respiratory domain of CFQ-R, Day 28, Median (MITT population, 240 mg BID): 72.2
- CFQ-R Body Image, LS Mean Difference [2]: −0.25
- CFQ-R Digestion, LS Mean Difference [2]: 2.46
- CFQ-R Eating, LS Mean Difference [2]: 5.70
- CFQ-R Emotion, LS Mean Difference [2]: −0.09
- CFQ-R Health Perception, LS Mean Difference [2]: 2.58
- CFQ-R Physical, LS Mean Difference [2]: 5.94
- CFQ-R Respiratory, LS Mean Difference [2]: 4.50
- CFQ-R Role/School, LS Mean Difference [2]: −0.53
- CFQ-R Social, LS Mean Difference [2]: 2.37
- CFQ-R Treatment Burden, LS Mean Difference [2]: 0.06
- CFQ-R Vitality, LS Mean Difference [2]: 3.11
- CFQ-R Weight, LS Mean Difference [2]: 5.4
- CFQ-R Body Image, LS Mean Change from Baseline [3]: 0.34
- CFQ-R Digestion, LS Mean Change from Baseline [3]: 1.11
- CFQ-R Eating, LS Mean Change from Baseline [3]: 2.41
- CFQ-R Emotion, LS Mean Change from Baseline [3]: 2.22
- CFQ-R Health Perception, LS Mean Change from Baseline [3]: 0.52
- CFQ-R Physical, LS Mean Change from Baseline [3]: 3.14
- CFQ-R Respiratory, LS Mean Change from Baseline [3]: 4.06
- CFQ-R Role/School, LS Mean Change from Baseline [3]: −1.94
- CFQ-R Social, LS Mean Change from Baseline [3]: 0.69
- CFQ-R Treatment Burden, LS Mean Change from Baseline [3]: −0.93
- CFQ-R Vitality, LS Mean Change from Baseline [3]: 1.23
- CFQ-R Weight, LS Mean Change from Baseline [3]: 10.06
- Respiratory domain of CFQ-R, Change from Baseline to Day 14, Mean (MITT population, 240 mg QD): 1.4
- Respiratory domain of CFQ-R, Change from Baseline to Day 14, Median (MITT population, 240 mg QD): 0.0
- Respiratory domain of CFQ-R, Change from Baseline to Day 28, Mean (MITT population, 240 mg QD): 0.3
- Respiratory domain of CFQ-R, Change from Baseline to Day 28, Median (MITT population, 240 mg QD): 0.0
- Respiratory domain of CFQ-R, Day 1, Mean (MITT population, 240 mg QD): 61.3
- Respiratory domain of CFQ-R, Day 1, Median (MITT population, 240 mg QD): 61.1
- Respiratory domain of CFQ-R, Day 14, Mean (MITT population, 240 mg QD): 63.0
- Respiratory domain of CFQ-R, Day 14, Median (MITT population, 240 mg QD): 66.7
- Respiratory domain of CFQ-R, Day 28, Mean (MITT population, 240 mg QD): 61.6
- Respiratory domain of CFQ-R, Day 28, Median (MITT population, 240 mg QD): 66.7
- Respiratory domain of CFQ-R, Change from Baseline to Day 14, Mean [4]: 4.5
- Respiratory domain of CFQ-R, Change from Baseline to Day 14, Median [4]: 5.5
- Respiratory domain of CFQ-R, Change from Baseline to Day 28, Mean [4]: 1.7
- Respiratory domain of CFQ-R, Change from Baseline to Day 28, Median [4]: 0.0
- Respiratory domain of CFQ-R, Day 1, Mean [4]: 60.9
- Respiratory domain of CFQ-R, Day 1, Median [4]: 61.1
- Respiratory domain of CFQ-R, Day 14, Mean [4]: 65.8
- Respiratory domain of CFQ-R, Day 14, Median [4]: 69.4
- Respiratory domain of CFQ-R, Day 28, Mean [4]: 63.0
- Respiratory domain of CFQ-R, Day 28, Median [4]: 66.7
- CFQ-R respiratory, mean change from baseline (MITT, 120 mg QD): 0.3 units
- CFQ-R respiratory, mean change from baseline (MITT, 240 mg BID): 1.7 units
- CFQ-R respiratory, mean change from baseline (MITT, 240 mg QD): 3.0 units

Reference: patent publication US10792289B2 (Horizon Orphan LLC, priority 2009, dated 2020)
